Laboratory results: patent US11690824B2, “Antibacterial compounds” (THE GENERAL HOSPITAL CORPORATION, priority 2018, dated 2023)
≈ marks a conversion by molar mass, not a printed value. Like-named read-outs stand apart in the source and are kept apart here.

Tests used:
S. aureus (MRSA) MW2 = assay: Minimal inhibitory concentration (MIC) assay, micro-dilution; assay type: cell-based; conditions: for antibiotic activity / potency relative to nTZDpa: growing S. aureus cells
Text: Bacterial strains, growth conditions, and persister isolation. Methicillin-resistant S. aureus strains, MW2 BAA-1707, ATCC 33591, and JE2, methicillin-susceptible S. aureus strains, NCTC 8325, Newman, and ATCC 29213, vancomycin-resistant S. aureus strain, VRS1, Enterococcus faecium E007, vancomycin-resistant E. faecium strains, C68,^7 WB312, and WC196, Klebsiella pneumoniae WGLW2 (BEI Resources, Manassas, Va., USA), Acinetobacter baumannii ATCC 17978, Pseudomonas aeruginosa PA14, and Enterobacter aerogenes ATCC 13048 were used to test antimicrobial activity (Table 1). S. aureus strains were grown in tryptic soy broth (TSB) (BD, Franklin Lakes, N.J., USA), and E. faecium was grown in brain-heart infusion (BHI) broth (BD, Franklin Lakes, N.J., USA) at 37° C. K. pneumoniae, A. baumannii, P. aeruginosa, and E. aerogenes were grown in Luria Bertani (LB) broth (BD, Franklin Lakes, N.J., USA) at 37° C.
Minimal inhibitory concentration (MIC) assay. The MICS of antibiotics were determined by the standard micro-dilution method recommended by the Clinical and Laboratory Standards Institute. MIC assays were conducted in biological triplicate.

MRSA MW2 = assay: Antibiotic synergy test (checkerboard); assay type: cell-based, S. aureus; conditions: nTZDpa in combination with the named antibiotic, synergy if FICI ≤ 0.5
Procedure: Antibiotic synergy test. Antibiotic synergism was evaluated by the checkerboard method. Briefly, 2-fold serial dilutions of nTZDpa were combined with 2-fold serial dilutions of each other antibiotic, which created an 8×8 matrix in a 96-well microtiter plate. The fractional inhibitory concentration index (FICI) was calculated as follows: FICI=MIC of compound A in combination/MIC of compound A alone+MIC of compound B in combination/MIC of compound B alone. The interaction between two compounds was defined, as follows: synergy if FICI≤0.5, no interaction if 0.5<FICI≤4, and antagonism if FICI>4.

human erythrocytes = assay: Human blood hemolysis; assay type: cell-based; conditions: human erythrocytes
Procedure: Human blood hemolysis. Hemolytic activity was evaluated as described in a previous study. Briefly, 100 μL of 4% human erythrocytes (Rockland Immunochemicals, Limerick, Pa., USA) was added to 100 μL of 2-fold serial dilutions of compounds in PBS, 0.2% DMSO (negative control), or 2% Triton-X 100 (positive control) in a 96-well plate. The 96-well plate was incubated at 37° C. for 1 h and then centrifuged at 500× g for 5 min. 50 μL of the supernatant was transferred to a fresh 96-well plate, and absorbance of supernatants was measured at 540 nm. Percent hemolysis was calculated using the following equation: (A540 nm of compound treated sample−A540 nm of 0.1% DMSO treated sample)/(A540 nm of 1% Triton X-100 treated sample−A540 nm of 0.1% DMSO treated sample)×100. HC50 (concentration of a compound causing 50% hemolysis) was determined using SigmaPlot 10.0 (Systat Software Inc., San Jose, Calif., USA).

[1] = system: MRSA MW2 persisters (stationary phase); assay: Persister killing assay; assay type: cell-based, S. aureus; conditions: 64 μg/mL
Procedure: Persister killing assay. […] Persister cells of MRSA MW2 were prepared by growing cultures overnight to stationary phase at 37° C. at 200 rpm and washing 3 times with PBS. 1 mL of ˜2×10^8 CFU/mL MRSA persisters was added to 1 mL of PBS containing 2-fold of the desired concentration of antibiotics in a 96-well assay block (Corning Costar 3960). The assay block was incubated at 37° C., with shaking at 200 rpm. At specific times, […] were removed, washed once with PBS, serially diluted and spot-plated on TSA plates. Colonies were counted to enumerate the number of live cells after overnight incubation at 37° C. These experiments were conducted in biological triplicate.

[2] = Staphylococcus aureus, Table 3, growing MRSA, read-out: MIC
[3] = Staphylococcus aureus, MRSA, PPARγ agonists, read-out: MICS against S. aureus MW2
[4] = Staphylococcus aureus, Example 5, MRSA MW2, read-out: MIC

| Structure (SMILES) | MIC (S. aureus (MRSA) MW2; [2]) [µg/mL] | HC50: median hemolytic concentration (human erythrocytes) [µg/mL] | also measured |
| --- | --- | --- | --- |
| O=C(O)c1c(Cc2ccccc2)c2cc(Cl)ccc2n1Cc1ccc(Cl)cc1 [Compound S12, 3-benzyl-5-chloro-1-(4-chlorobenzyl)-1H-indole-2-carboxylic acid] | – | – | antibiotic activity / potency relative to nTZDpa (S. aureus (MRSA) MW2): less potency |
| CN(C)[C@@H]1C(O)=C(C(N)=O)C(=O)[C@@]2(O)C(O)=C3C(=O)c4c(O)cccc4[C@@](C)(O)[C@H]3C[C@@H]12 [Tetracycline, tetracycline] | – | – | FICI (fractional inhibitory concentration index) (MRSA MW2): 1.125 |
| O=C(O)c1c(Oc2ccc(Cl)c(Cl)c2)c2cc(Cl)ccc2n1Cc1ccc(Cl)cc1 [Compound 12, 5-chloro-1-(4-chlorobenzyl)-3-(3,4-dichlorophenoxy)-1H-indole-2-carboxylic acid] | 1 (≈ 2.08 µM) | 38 | – |
| O=C(O)c1c(Oc2ccccc2)c2cc(Cl)ccc2n1Cc1ccc(Cl)c(Cl)c1 [Compound 10, 5-chloro-1-(3,4-dichlorobenzyl)-3-phenoxy-1H-indole-2-carboxylic acid] | 2 (≈ 4.48 µM) | >64 | – |
| CC(C)(C)c1ccc(Sc2c(C(=O)O)n(Cc3ccc(Cl)cc3)c3ccc(Cl)cc23)cc1 [Compound 5, 3-((4-(tert-butyl)phenyl)thio)-5-chloro-1-(4-chlorobenzyl)-1H-indole-2-carboxylic acid] | 2 (≈ 4.13 µM) | 26 | – |
| CN(CCOc1ccc(CC2SC(=O)NC2=O)cc1)c1ccccn1 (stereo not drawn) [rosiglitazone, reference compound] | – | – | MIC (S. aureus (MRSA) MW2; [3]): > 64 µg/mL |
| O=C(O)c1c(Oc2ccc(Br)cc2)c2cc(Cl)ccc2n1Cc1ccc(Cl)cc1 [Compound 13, 3-(4-bromophenoxy)-5-chloro-1-(4-chlorobenzyl)-1H-indole-2-carboxylic acid] | 2 (≈ 4.07 µM) | >64 | – |
| O=C(O)c1c(Sc2ccc(Cl)cc2)c2cc(Cl)ccc2n1Cc1ccc(Cl)cc1 [Compound 4, 5-chloro-1-(4-chlorobenzyl)-3-((4-chlorophenyl)thio)-1H-indole-2-carboxylic acid] | 2 (≈ 4.32 µM) | 34 | – |
| OCc1c(Oc2ccccc2)c2cc(Cl)ccc2n1Cc1ccc(Cl)cc1 [Compound S13, (5-chloro-1-(4-chlorobenzyl)-3-phenoxy-1H-indol-2-yl)methanol] | – | – | antibiotic activity / potency relative to nTZDpa (S. aureus (MRSA) MW2): reduction of antibiotic activity |
| O=C(O)c1c(Oc2ccc(I)cc2)c2cc(Cl)ccc2n1Cc1ccc(Cl)cc1 [Compound 14, 5-chloro-1-(4-chlorobenzyl)-3-(4-iodophenoxy)-1H-indole-2-carboxylic acid] | 1 (≈ 1.86 µM) | >64 | – |
| CO[C@H]1/C=C/O[C@@]2(C)Oc3c(C)c(O)c4c(O)c(c(/C=N/N5CCN(C)CC5)c(O)c4c3C2=O)NC(=O)/C(C)=C\C=C\[C@H](C)[C@H](O)[C@@H](C)[C@@H](O)[C@@H](C)[C@H](OC(C)=O)[C@@H]1C [Rifampicin, rifampicin] | – | – | FICI (fractional inhibitory concentration index) (MRSA MW2): 1 |
| NC[C@H]1O[C@H](O[C@H]2[C@H](O)[C@@H](O[C@H]3O[C@H](CO)[C@@H](O)[C@H](N)[C@H]3O)[C@H](N)C[C@@H]2N)[C@H](O)[C@@H](O)[C@@H]1O [Kanamycin, kanamysin] | – | – | FICI (fractional inhibitory concentration index) (MRSA MW2): 0.5 |
| CCc1ccc(CCOc2ccc(CC3SC(=O)NC3=O)cc2)nc1 (stereo not drawn) [pioglitazone, reference compound] | – | – | MIC (S. aureus (MRSA) MW2; [3]): > 64 µg/mL |
| O=C(O)c1c(Oc2ccc(Cl)cc2)c2cc(Cl)ccc2n1Cc1ccc(Cl)cc1 [Compound 11, 5-chloro-1-(4-chlorobenzyl)-3-(4-chlorophenoxy)-1H-indole-2-carboxylic acid] | 2 (≈ 4.48 µM) | >64 | – |
| O=C(O)c1c(Sc2ccccc2)c2cc(Cl)ccc2n1Cc1ccccc1 [S4 (analog 2), 1-benzyl-5-chloro-3-(phenylthio)-1H-indole-2-carboxylic acid] | – | – | MIC (S. aureus (MRSA) MW2; [4]): 16 µg/mL (≈ 40.6 µM) |
| O=C(O)c1c(Oc2ccccc2)c2cc(Cl)ccc2n1Cc1ccc(Cl)cc1 [Compound 6, 5-chloro-1-(4-chlorobenzyl)-3-phenoxy-1H-indole-2-carboxylic acid] | 4 (≈ 9.7 µM) | >64 | antibiotic activity / potency relative to nTZDpa (S. aureus (MRSA) MW2): equipotent with nTZDpa; decrease in viability of persisters [1]: 3 log |
| [H]/N=C(/N)N[C@H]1[C@H](O)[C@@H](O)[C@H](O[C@@H]2O[C@@H](C)[C@](O)(C=O)[C@H]2O[C@@H]2O[C@@H](CO)[C@H](O)[C@@H](O)[C@@H]2NC)[C@@H](N/C(N)=N\[H])[C@@H]1O [Streptomycin, streptomycin] | – | – | FICI (fractional inhibitory concentration index) (MRSA MW2): 0.37 |
| O=C(O)c1c(Sc2ccccc2)c2cc(Cl)ccc2n1Cc1cccc(Cl)c1 [Analog 2b, 5-chloro-1-(3-chlorobenzyl)-3-(phenylthio)-1H-indole-2-carboxylic acid] | – | – | MIC (S. aureus (MRSA) MW2; Example 5, MRSA MW2): same MIC |
| NC[C@H]1O[C@H](O[C@H]2[C@H](O)[C@@H](O[C@H]3O[C@H](CO)[C@@H](O)[C@H](N)[C@H]3O)[C@H](N)C[C@@H]2N)[C@H](N)C[C@@H]1O [Tobramycin, tobaramysin] | – | – | FICI (fractional inhibitory concentration index) (MRSA MW2): 0.31 |
| Cn1c(C(=O)O)c(Sc2ccccc2)c2cc(Cl)ccc21 [Analog 5, 5-chloro-1-methyl-3-(phenylthio)-1H-indole-2-carboxylic acid] | – | – | MIC (S. aureus (MRSA) MW2; [4]): 64 µg/mL (≈ 201 µM) |
